Measured values as given in US11801235B2, “Methods and compositions for delivery of biotin to mitochondria” (priority 2020, dated 2023).
Peptide text beside a SMILES is read from it. * marks the point of attachment. Biotin = O=C1N[C@H]2[C@H](CS[C@H]2CCCCC(=O)*)N1

Tests used:
[1] = test system: ARPE-19 human retinal pigment epithelial cells; experiment: Mitochondrial localization: co-localization with cytochrome c oxidase subunit 4 (COX4); format: cell-based; details: ARPE-19 cells, 1 uM, 2 hours, serum-free DMEM/F12
Experimental: Cells were fixed with 4% PFA at RT for 10 min and then permeabilized with 0.1% Triton X-100 at RT for 10 min. Cells were blocked with 2% BSA (bovine serum albumin) at RT for 30 min, and then incubated with primary antibody for cytochrome c oxidase subunit 4 (COX4), a major protein complex expressed on the inner mitochondrial membrane. The rabbit polyclonal COX4 antibody (Invitrogen PAS-29992, Waltham, MA) was used at 1:500 dilution in 2% BSA at 4° C. overnight.

[2] = test system: HK-2 cells; experiment: Cell viability (Alamar Blue) after 11 days of serum starvation; format: cell-based, human; details: 10 nM, vs serum-free control
Experimental: In the first model, HK-2 cells were cultured in 96-well plates in serum-free DMEM alone or in serum-free DMEM containing 10 nM of SPN11 or SPN12 for 11 days. Culture medium was replaced every 3 days.
(§1) Cell viability was measured using the Alamar Blue Cell Proliferation Assay (Bio-Rad), according to manufacturer's protocol. Alamar Blue uses resazurin to measure reducing power of living cells. The weakly fluorescent resazurin is reduced to the highly fluorescent resorufin when reduced by cellular metabolism. Briefly, alamar blue reagent (10 ul) was added to the culture medium and incubated for 1 h at 37° C. Fluorescence from resorufin (Ex/Em 530/590 nm) was detected using a microplate reader (SpectraMax iD3, Molecular Devices).

[3] = test system: ARPE-19 cells; experiment: Cell number and viability after 30 days of serum deprivation; format: cell-based, human; details: 10 nM
Experimental: as §1
In the second model, ARPE-19 cells were grown in serum-free DMEM in the absence or presence of peptide-conjugated biotin molecules for 30 days. Serum-free media was supplemented with 10 nM of SPN12, SPN15 or SPN16 compounds (all at 10 nM) was replaced every 3 days. Culture medium was replaced every 3 days.

[4] = test system: HK-2 cells; experiment: Cellular ATP in extreme starvation model (serum-free 5% DMEM in PBS, 3 days); format: cell-based, human; details: 10 nM
Experimental: ATP was measured using the ApoSENSOR ATP Bioluminescence Assay Kit (BioVision) according to manufacturer's protocol. This kit utilizes luciferase to catalyze the formation of light from ATP and luciferin. Briefly, cells were treated with 100 ul of Nuclear Releasing Buffer for 5 min at RT with gentle shaking. 10 ul of ATP Monitoring Enzyme was added to cell lysate, and luminescence was measured using a microplate reader (SpectraMax iD3, Molecular Device). ATP levels were normalized to the serum-free DMEM control group (arbitrarily set to 1.0).
The second model uses an extreme starvation model whereby HK-2 cells were cultured in 96-well plates in serum-free 5% DMEM in PBS (phosphate-buffered saline) for 3 days. Cells were treated with 10 nM free biotin or peptide-conjugated biotin molecules. All treatments were carried out with N=6 in each experiment.

[5] = test system: Human retinal pigment epithelial cells (ARPE-19); experiment: Mitochondrial potential (TMRM/MitoView Green) after serum starvation; format: cell-based; details: ARPE-19 cells, 3 days of serum starvation, then 1 uM for 2 hours
Experimental: ARPE-19 cells were seeded in 35 mm glass plates at an initial density of 5×10^4 cells. […] Cells were then incubated in serum-free DMEM/F12 alone (control group) or DMEM/F12 containing 1 uM of SPN12 or SPN15 for 2 hours.
To determine mitochondrial potential, live cells were incubated with 5 nM tetramethylrhodamine methyl ester (TMRM, #70017, Biotium, Fremont, CA) in DMEM without phenol red. TMRM is a potential-dependent fluorescent dye (Ex/Em=548/573). TMRM accumulates in negatively charged polarized mitochondria and can be detected as red fluorescence. Total mitochondria were imaged with a mitochondrial potential-independent fluorescent dye (100 nM MitoView Green; Ex/Em=490/523; #70054, Biotium, Fremont CA). Hoechst 33342 (10 ug/ml, Novus Biologicals, Centennial, CO) was added to stain nuclei. Live cells were covered with phosphate buffer and imaged using the Nikon Eclipse Ti fluorescent microscopy using the 60×water objective.

[6] = test system: HK-2 cells; experiment: In vitro scratch assay (scratch area); format: cell-based, human; details: 10 nM
Experimental: (§2) Certain exemplary peptide-conjugated biotin molecules can accelerate wound healing in cell cultures. The in vitro scratch assay is an easy and well-developed method to measure cell proliferation and migration over a “wound area” in vitro. This assay involves creating a “scratch” in a cell monolayer with a pipette tip and then examining the rate at which cells proliferate and migrate to close the scratch.
3×10^5 cells were plated per well in 6-well plates in DMEM at 37° C. in a humidified incubator with 5% CO2 for one day prior to the experiment. To mimic the microenvironment of wounds in vitro, serum-free medium was used in the scratch assay. On the day of the scratch assay, the medium was replaced with serum-free DMEM, and a line scraped across the cell monolayer using a p1000 pipette tip. Cells were washed to remove cell debris and replaced with DMEM alone (control), or DMEM containing 10 nM biotin or peptide-conjugated biotin molecules.
(§3) The scratch area was examined immediately (day 0) using a Nikon Eclipse Ti2 fluorescence microscope. Six different field were captured for each sample using 4×objective. The scratch area (cell-free zone) was calculated using ImageJ software, an open-source Java image processing program inspired by NIH Image (National Institute of Health). The scratch area was re-examined after 24 hours (day 1), and the area was normalized to the area determined on day 0 for the same sample. All results were calculated as change from no-treatment control and averaged for the six fields.

[7] = test system: ARPE-19 cells; experiment: In vitro scratch assay (scratch area); format: cell-based, human
Description: as §2, §3

[8] = test system: ARPE-19 human retinal pigment epithelial cell monolayers; experiment: Cell proliferation at scratch edge (PCNA staining); format: cell-based; details: ARPE-19 cells, 10 nM, serum-free, 24 hours after scratch
Description: (§4) Re-epithelialization of a wound area require proliferation of cells at the wound edge, which can be impaired in most wounds due to lack of blood flow to deliver nutrients and/or growth factor(s) that can be necessary for cell proliferation. Cell proliferation in the wound edge can be monitored by proliferating cell nuclear antigen (PCNA) staining. To mimic the microenvironment of wounds in vitro, serum-free medium was used for the scratch assay in cell cultures.
(§5) Proliferating cells were identified by immunostaining with antibody to proliferating cell nuclear antigen (PCNA) according to standard procedures as presented in IHC World. PCNA staining was performed using the same plate of cells after determination of scratch area. […] All cell nuclei stain blue with Hoechst, but nuclei of proliferating cells stain red. The number of proliferating cells per field was quantified by the intensity of red nuclear stain and normalized to intensity of blue nuclear stain (determined by Nikon NIS-Elements Imaging Software).

[9] = test system: HK-2 human renal epithelial cell monolayers; experiment: Cell proliferation at scratch edge (PCNA staining); format: cell-based; details: HK-2 cells, 10 nM, serum-free, 24 hours after scratch
Description: as §4, §5

[10] = test system: HK-2 cells; experiment: Mitochondrial potential (TMRM) of cells at the scratch edge; format: cell-based, human; details: 10 nM, serum-free, 24 hours after scratch
Description: Rapidly dividing cells can need ATP to support the synthesis of important building blocks. Tissue injury can cause rapid mitochondrial depolarization that compromises ATP production and/or results in cell death. The loss of ATP can further impair cell proliferation and/or tissue repair. Mitochondrial potential can be monitored in the cells at the edge of the scratch area using the cell-permeable potential-dependent dye TMRM (tetramethylrhodamine methyl ester). TMRM can accumulate in negatively charged polarized mitochondria and can be detected as red fluorescence. To mimic the microenvironment of wounds in vitro, serum-free medium was used in the scratch assay. […] HK-2 cells were then incubated with 5 nM TMRM in DMEM without phenol red and incubated for 30 min. Cells were then covered with live cell image buffer and imaged using Nikon Eclipse Ti2 fluorescent microscope (20× objective).

N=C(N)NCCC[C@H](NC(=O)[C@H](Cc1c[nH]c2ccccc12)NC(=O)CCCC[C@@H]1SC[C@@H]2NC(=O)N[C@@H]21)C(=O)N[C@@H](Cc1c[nH]c2ccccc12)C(=O)N[C@@H](CCCCNC(=O)CCCC[C@@H]1SC[C@@H]2NC(=O)N[C@@H]21)C(N)=O [SPN12, D-Biotin-L-Trp-L-Arg-L-Trp-L-Lys(biotinyl)-NH2] (Biotin-WRWK(Biotin)-NH2)
co-localization of biotin staining with COX4 staining (inner mitochondrial membrane), FIG. 6 [1]: co-localization
improvement of cell viability in the absence of serum, FIG. 7 [2]: 35%
cell viability after serum deprivation compared to control, FIG. 9 ([3]; 30 days of serum deprivation): doubled
cell number after prolonged serum deprivation, microscopic images FIG. 8 ([3]; 30 days serum-free): increased cell number
ATP content compared to free biotin under extreme starvation, FIG. 12 [4]: doubling
mitochondrial potential (TMRM) and filamentous mitochondrial network, FIG. 14 [5]: restore mitochondrial potential in all cells
scratch area after 24 hours, microscopic images FIG. 15 ([6]; serum-free DMEM, 24 hours after mechanical scratch): almost completely closed
closure of the scratch area compared to control, FIG. 16 and FIG. 17 ([6]; serum-free, 24 hours): significantly accelerated the closure of the scratch area
effectiveness in reducing scratch area compared to free biotin, FIG. 16 and FIG. 17 ([6]; serum-free, 24 hours): twice as effective
wound healing (scratch closure), FIG. 18 [7]: accelerated wound healing
number of proliferating (PCNA-positive) cells at the edge of the scratch, images FIG. 22 [8]: increased the number of proliferating cells
number of proliferating cells normalized to all nuclei, FIG. 21 ([9]; compared to control or biotin): doubled
number of proliferating (PCNA-positive) cells at the edge of the scratch, images FIG. 20 ([9]; compared to free biotin): increased the number of proliferating cells
number of cells with good mitochondrial potential (TMRM) at scratch edge, images FIG. 24 [10]: increased the number of cells with good mitochondrial potential
mitochondrial potential (red fluorescence) normalized to nuclear number, FIG. 25 ([10]; compared to control): significantly increased mitochondrial potential
